ChEMBL document CHEMBL4020788, “Synthesis, SAR and molecular docking studies of benzo[d]thiazole-hydrazones as potential antibacterial and antifungal agents” (2017)
≈ marks a conversion by molar mass, not a printed value. Calls of active or inactive are those of the source. The rule behind the calls is not given here.

Experiments:
Assay type in all cases: functional
Staphylococcus aureus [1] = experiment: Antibacterial activity against Staphylococcus aureus at 25 ug/ml after 24 hrs by agar well diffusion method; settings: read-out: DIZ
Staphylococcus aureus [2] = experiment: Antibacterial activity against Staphylococcus aureus at 50 ug/ml after 24 hrs by agar well diffusion method; settings: read-out: DIZ
Staphylococcus aureus [3] = experiment: Antibacterial activity against Staphylococcus aureus at 75 ug/ml after 24 hrs by agar well diffusion method; settings: read-out: DIZ
Staphylococcus aureus [4] = experiment: Antibacterial activity against Staphylococcus aureus at 100 ug/ml after 24 hrs by agar well diffusion method; settings: read-out: DIZ
Bacillus subtilis [5] = experiment: Antibacterial activity against Bacillus subtilis at 25 ug/ml after 24 hrs by agar well diffusion method; settings: read-out: DIZ
Bacillus subtilis [6] = experiment: Antibacterial activity against Bacillus subtilis at 50 ug/ml after 24 hrs by agar well diffusion method; settings: read-out: DIZ
Bacillus subtilis [7] = experiment: Antibacterial activity against Bacillus subtilis at 75 ug/ml after 24 hrs by agar well diffusion method; settings: read-out: DIZ
Bacillus subtilis [8] = experiment: Antibacterial activity against Bacillus subtilis at 100 ug/ml after 24 hrs by agar well diffusion method; settings: read-out: DIZ
Escherichia coli [9] = experiment: Antibacterial activity against Escherichia coli at 25 ug/ml after 24 hrs by agar well diffusion method
Escherichia coli [10] = experiment: Antibacterial activity against Escherichia coli at 50 ug/ml after 24 hrs by agar well diffusion method
Escherichia coli [11] = experiment: Antibacterial activity against Escherichia coli at 75 ug/ml after 24 hrs by agar well diffusion method
Escherichia coli [12] = experiment: Antibacterial activity against Escherichia coli at 100 ug/ml after 24 hrs by agar well diffusion method
Klebsiella pneumoniae [13] = experiment: Antibacterial activity against Klebsiella pneumoniae at 25 ug/ml after 24 hrs by agar well diffusion method; settings: read-out: DIZ
Klebsiella pneumoniae [14] = experiment: Antibacterial activity against Klebsiella pneumoniae at 50 ug/ml after 24 hrs by agar well diffusion method; settings: read-out: DIZ
Klebsiella pneumoniae [15] = experiment: Antibacterial activity against Klebsiella pneumoniae at 75 ug/ml after 24 hrs by agar well diffusion method; settings: read-out: DIZ
Klebsiella pneumoniae [16] = experiment: Antibacterial activity against Klebsiella pneumoniae at 100 ug/ml after 24 hrs by agar well diffusion method; settings: read-out: DIZ
Staphylococcus aureus [17] = experiment: Antibacterial activity against methicillin resistant Staphylococcus aureus MRSA090 at 25 ug/ml after 24 hrs by agar well diffusion method; settings: MRSA090, 24 h, read-out: DIZ
Staphylococcus aureus [18] = experiment: Antibacterial activity against methicillin resistant Staphylococcus aureus MRSA090 at 50 ug/ml after 24 hrs by agar well diffusion method; settings: MRSA090, 24 h, read-out: DIZ
Staphylococcus aureus [19] = experiment: Antibacterial activity against methicillin resistant Staphylococcus aureus MRSA090 at 75 ug/ml after 24 hrs by agar well diffusion method; settings: MRSA090, 24 h, read-out: DIZ
Staphylococcus aureus [20] = experiment: Antibacterial activity against methicillin resistant Staphylococcus aureus MRSA090 at 100 ug/ml after 24 hrs by agar well diffusion method; settings: MRSA090, 24 h, read-out: DIZ
Aspergillus niger [21] = experiment: Antifungal activity against Aspergillus niger at 25 ug/ml after 48 hrs by agar well diffusion method; settings: read-out: DIZ
Aspergillus niger [22] = experiment: Antifungal activity against Aspergillus niger at 50 ug/ml after 48 hrs by agar well diffusion method; settings: read-out: DIZ
Aspergillus niger [23] = experiment: Antifungal activity against Aspergillus niger at 75 ug/ml after 48 hrs by agar well diffusion method; settings: read-out: DIZ
Aspergillus niger [24] = experiment: Antifungal activity against Aspergillus niger at 100 ug/ml after 48 hrs by agar well diffusion method; settings: read-out: DIZ
Fusarium verticillioides [25] = experiment: Antifungal activity against Fusarium moniliforme at 25 ug/ml after 48 hrs by agar well diffusion method; settings: read-out: DIZ
Fusarium verticillioides [26] = experiment: Antifungal activity against Fusarium moniliforme at 50 ug/ml after 48 hrs by agar well diffusion method; settings: read-out: DIZ
Fusarium verticillioides [27] = experiment: Antifungal activity against Fusarium moniliforme at 75 ug/ml after 48 hrs by agar well diffusion method; settings: read-out: DIZ
Fusarium verticillioides [28] = experiment: Antifungal activity against Fusarium moniliforme at 100 ug/ml after 48 hrs by agar well diffusion method; settings: read-out: DIZ
Fusarium oxysporum [29] = experiment: Antifungal activity against Fusarium oxysporum at 25 ug/ml after 48 hrs by agar well diffusion method; settings: read-out: DIZ
Fusarium oxysporum [30] = experiment: Antifungal activity against Fusarium oxysporum at 50 ug/ml after 48 hrs by agar well diffusion method; settings: read-out: DIZ
Fusarium oxysporum [31] = experiment: Antifungal activity against Fusarium oxysporum at 75 ug/ml after 48 hrs by agar well diffusion method; settings: read-out: DIZ
Fusarium oxysporum [32] = experiment: Antifungal activity against Fusarium oxysporum at 100 ug/ml after 48 hrs by agar well diffusion method; settings: read-out: DIZ
Klebsiella pneumoniae [33] = experiment: Antibacterial activity against Klebsiella pneumoniae incubated for overnight by microdilution method
Staphylococcus aureus [34] = experiment: Antibacterial activity against Staphylococcus aureus incubated for overnight by microdilution method
Bacillus subtilis [35] = experiment: Antibacterial activity against Bacillus subtilis incubated for overnight by microdilution method
Escherichia coli [36] = experiment: Antibacterial activity against Escherichia coli incubated for overnight by microdilution method
Staphylococcus aureus [37] = experiment: Antibacterial activity against methicillin resistant Staphylococcus aureus MRSA090 incubated for overnight by microdilution method
Aspergillus niger [38] = experiment: Antifungal activity against Aspergillus niger after 48 to 72 hrs by microdilution method
Fusarium verticillioides [39] = experiment: Antifungal activity against Fusarium moniliforme after 48 to 72 hrs by microdilution method
Fusarium oxysporum [40] = experiment: Antifungal activity against Fusarium oxysporum after 48 to 72 hrs by microdilution method

SMILES | zone of inhibition at 25 µg/mL (Staphylococcus aureus [1]) | zone of inhibition at 50 µg/mL (Staphylococcus aureus [2]) | zone of inhibition at 75 µg/mL (Staphylococcus aureus [3]) | zone of inhibition at 100 µg/mL (Staphylococcus aureus [4]) | zone of inhibition at 25 µg/mL (Bacillus subtilis [5]) | zone of inhibition at 50 µg/mL (Bacillus subtilis [6]) | zone of inhibition at 75 µg/mL (Bacillus subtilis [7]) | zone of inhibition at 100 µg/mL (Bacillus subtilis [8]) | zone of inhibition at 25 µg/mL (Klebsiella pneumoniae [13]) | zone of inhibition at 50 µg/mL (Klebsiella pneumoniae [14]) | zone of inhibition at 75 µg/mL (Klebsiella pneumoniae [15]) | zone of inhibition at 100 µg/mL (Klebsiella pneumoniae [16]) | zone of inhibition at 25 µg/mL (Staphylococcus aureus [17]) | zone of inhibition at 50 µg/mL (Staphylococcus aureus [18]) | zone of inhibition at 75 µg/mL (Staphylococcus aureus [19]) | zone of inhibition at 100 µg/mL (Staphylococcus aureus [20]) | zone of inhibition at 25 µg/mL (Aspergillus niger [21]) | zone of inhibition at 50 µg/mL (Aspergillus niger [22]) | zone of inhibition at 75 µg/mL (Aspergillus niger [23]) | zone of inhibition at 100 µg/mL (Aspergillus niger [24]) | other results
Cc1cccc2nc(N/N=C/c3cccs3)sc12 | 12 mm | 18 mm | 24 mm | 28 mm | 10 mm | 15 mm | 21 mm | 24 mm | 7 mm | 11 mm | 18 mm | 21 mm | 13 mm | 16 mm | 22 mm | 28 mm | 11 mm | 15 mm | 21 mm | 26 mm | zone of inhibition at 25 µg/mL (Escherichia coli [9]; read-out: DIZ): 10 mm; zone of inhibition at 50 µg/mL (Escherichia coli [10]; read-out: DIZ): 14 mm; zone of inhibition at 75 µg/mL (Escherichia coli [11]; read-out: DIZ): 18 mm; zone of inhibition at 100 µg/mL (Escherichia coli [12]; read-out: DIZ): 22 mm; zone of inhibition at 25 µg/mL (Fusarium verticillioides [25]): 7 mm; zone of inhibition at 50 µg/mL (Fusarium verticillioides [26]): 9 mm; zone of inhibition at 75 µg/mL (Fusarium verticillioides [27]): 12 mm; zone of inhibition at 100 µg/mL (Fusarium verticillioides [28]): 15 mm; zone of inhibition at 25 µg/mL (Fusarium oxysporum [29]): 21 mm; zone of inhibition at 50 µg/mL (Fusarium oxysporum [30]): 24 mm; zone of inhibition at 75 µg/mL (Fusarium oxysporum [31]): 29 mm; zone of inhibition at 100 µg/mL (Fusarium oxysporum [32]): 30 mm; MIC (Klebsiella pneumoniae [33]): 26 µg/mL (≈ 95.1 µM); MIC (Staphylococcus aureus [34]): 32 µg/mL (≈ 117 µM); MIC (Bacillus subtilis [35]): 26 µg/mL (≈ 95.1 µM); MIC (Escherichia coli [36]): 35 µg/mL (≈ 128 µM); MIC (Staphylococcus aureus [37]): 20 µg/mL (≈ 73.2 µM); MIC (Aspergillus niger [38]): 30 µg/mL (≈ 110 µM); MIC (Fusarium verticillioides [39]): 28 µg/mL (≈ 102 µM); MIC (Fusarium oxysporum [40]): 23 µg/mL (≈ 84.1 µM)
Cc1cccc2nc(N/N=C/c3ccc(Cl)cc3Cl)sc12 | 4 mm | 12 mm | 16 mm | 20 mm | 4 mm | 9 mm | 13 mm | 16 mm | 10 mm | 15 mm | 19 mm | 22 mm | 5 mm | 8 mm | 13 mm | 16 mm | 20 mm | 24 mm | 29 mm | 33 mm | diameter of the inhibition zone (DIZ) (Escherichia coli [9]): inactive; diameter of the inhibition zone (DIZ) (Escherichia coli [10]): inactive; diameter of the inhibition zone (DIZ) (Escherichia coli [11]): inactive; diameter of the inhibition zone (DIZ) (Escherichia coli [12]): inactive; zone of inhibition at 25 µg/mL (Fusarium verticillioides [25]): 17 mm; zone of inhibition at 50 µg/mL (Fusarium verticillioides [26]): 21 mm; zone of inhibition at 75 µg/mL (Fusarium verticillioides [27]): 28 mm; zone of inhibition at 100 µg/mL (Fusarium verticillioides [28]): 32 mm; zone of inhibition at 25 µg/mL (Fusarium oxysporum [29]): 18 mm; zone of inhibition at 50 µg/mL (Fusarium oxysporum [30]): 22 mm; zone of inhibition at 75 µg/mL (Fusarium oxysporum [31]): 27 mm; zone of inhibition at 100 µg/mL (Fusarium oxysporum [32]): 31 mm; MIC (Aspergillus niger [38]): 25 µg/mL (≈ 74.4 µM); MIC (Fusarium verticillioides [39]): 28 µg/mL (≈ 83.3 µM); MIC (Fusarium oxysporum [40]): 26 µg/mL (≈ 77.3 µM)
